Assay results: BindingDB's records for doi:10.1021/jm060168g (Wyeth Research, 2006)

Target: Huh7 (Homo sapiens)
Assay: Cytotoxicity against human Huh7 cell line containing HCV genotype 1b replicon

In the case of `O=C(O)[C@@H]1CCCN1S(=O)(=O)c1cc(Cl)c(Cl)c(Cl)c1O` [(S)-1-(3,4,5-trichloro-2-hydroxyphenylsulfonyl)pyrrolidine-2-carboxylic acid], the IC50 is reported as > 100 µM.
